ChEMBL document CHEMBL1135515, “Discovery of aminopyridine-based inhibitors of bacterial enoyl-ACP reductase (FabI)” (J Med Chem, 2002)
In brackets after ≈: the same amount, converted by molar mass.

What was measured:
[1] = system: Staphylococcus aureus; test: Minimum concentration required for inhibition of Staphylococcus aureus was determined.; format: functional
[2] = target: T1, Enoyl-[acyl-carrier-protein] reductase [NADPH] FabI (Staphylococcus aureus, UniProt Q6GI75); test: Concentration required for the 50% inhibition of enoyl-ACP reductase from Staphylococcus aureus was determined.
T1 sequence (Q6GI75 whole entry): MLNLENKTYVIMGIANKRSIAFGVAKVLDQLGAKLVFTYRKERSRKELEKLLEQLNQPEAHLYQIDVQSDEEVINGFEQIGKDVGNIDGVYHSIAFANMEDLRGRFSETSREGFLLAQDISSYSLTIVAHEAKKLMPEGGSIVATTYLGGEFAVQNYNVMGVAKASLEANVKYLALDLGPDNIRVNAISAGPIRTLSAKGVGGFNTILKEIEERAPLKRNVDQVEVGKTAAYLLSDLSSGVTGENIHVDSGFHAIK

[3] = system: Enterococcus faecalis; test: Minimum concentration required for inhibition of Enterococcus faecalis was determined.; format: functional
[4] = Concentration required for the 50% inhibition of enoyl-ACP reductase from Haemophilus influenzae was determined.
[5] = system: Streptococcus pneumoniae; test: Minimum concentration required for inhibition of Streptococcus pneumoniae was determined.; format: functional
[6] = system: Haemophilus influenzae; test: Minimum concentration required for inhibition of Haemophilus influenzae was determined.; format: functional
[7] = system: Moraxella catarrhalis; test: Minimum concentration required for inhibition of Moraxella catarrhalis was determined.; format: functional
[8] = system: Haemophilus influenzae; test: Antibacterial activity was measured against Haemophilus influenzae; format: functional
[9] = system: Staphylococcus aureus; test: Antibacterial activity was measured against Staphylococcus aureus; format: functional
[10] = system: Streptococcus pneumoniae; test: Minimum inhibitory concentration against growth of Streptococcus pneumoniae; format: functional
[11] = Compound was measured for the inhibition of enoyl-ACP reductase from Haemophilus influenzae
[12] = Inhibitory concentration against Streptococcus pneumoniae Enoyl-ACP reductase
[13] = Compound was measured for the inhibition of enoyl-ACP reductase from Staphylococcus aureus
[14] = system: Enterococcus faecalis; test: Minimum inhibitory concentration against growth of Enterococcus faecalis; format: functional
[15] = system: Escherichia coli; test: Minimum concentration required for inhibition of Escherichia coli AcrAB was determined.; format: functional
[16] = system: Haemophilus influenzae; test: Minimum concentration required for the inhibition of Haemophilus influenzae was determined.; format: functional
[17] = system: Staphylococcus aureus; test: Minimum concentration required for the inhibition of Staphylococcus aureus was determined.; format: functional
[18] = Concentration required for the 50% inhibition of Enoyl-ACP reductase from Streptococcus pneumoniae was determined.

Row | SMILES | MIC [1] [µg/mL] | IC50 [2] [µM] | MIC [3] [µg/mL] | IC50 [4] [µM] | MIC [5] [µg/mL] | MIC [6] [µg/mL] | further results
1 | CC(=O)N(C)Cc1cc(C(=O)N(C)Cc2cc3ccccc3n2C)ccc1N | 16 (≈ 42.3 µM) | 6.7 | > 64 | 4.7 | > 64 | > 64 | –
2 | CN(Cc1cc2ccccc2n1C)C(=O)CCc1ccc(N)nc1 | > 64 | 93.7 | > 64 | 97.4 | > 64 | > 64 | –
3 | CN1Cc2cc(C(=O)N(C)Cc3cc4ccccc4n3C)ccc2NCC1=O | 16 (≈ 42.5 µM) | 21.2 | > 64 | 2.5 | > 64 | > 64 | –
4 | CN(Cc1cc2ccccc2n1C)C(=O)c1ccccc1 | > 64 | > 100 | > 64 | > 100 | > 64 | > 64 | –
5 | COC(=O)CC1Nc2ccc(C(=O)N(C)Cc3cc4ccccc4n3C)cc2CN(C)C1=O (stereo unspecified) | > 64 | 16.5 | > 64 | 6.9 | > 64 | > 64 | MIC [7]: 32 µg/mL (≈ 71.3 µM)
6 | CN(Cc1cc2ccccc2n1C)C(=O)/C=C/c1cnc(N)nc1 | 2 (≈ 6.22 µM) | 2.2 | > 64 | 4.3 | > 64 | > 64 | –
7 | CN(Cc1cc2ccccc2n1C)C(=O)/C=C/c1ccc(N)cc1 | – | – | – | – | – | – | MIC [8]: > 64 µg/mL; MIC [9]: 32 µg/mL (≈ 100 µM); MIC [10]: > 64 µg/mL; IC50 [11]: 9 µM; IC50 [12]: > 30 µM; IC50 [13]: > 11.2 µM; MIC [14]: > 64 µg/mL
8 | CN(Cc1cc2ccccc2n1C)C(=O)/C=C/c1cccnc1 | 16 (≈ 52.4 µM) | 14.2 | > 64 | 15.2 | > 64 | > 64 | –
9 | CC(=O)N(C)Cc1cccc(C(=O)N(C)Cc2cc3ccccc3n2C)c1 | > 64 | 107 | > 64 | 121 | > 64 | > 64 | –
10 | CN(Cc1cc2ccccc2n1C)C(=O)c1ccc2c(c1)CN(C)C(=O)[C@H](C(=O)O)N2 | > 64 | 676 | > 64 | > 100 | > 64 | > 64 | –
11 | CN(Cc1cc2ccccc2n1C)C(=O)/C=C/c1ccc(N)nc1 | 0.5 (≈ 1.56 µM) | 2.4 | > 64 | 4.2 | > 64 | > 64 | MIC [7]: 4 µg/mL (≈ 12.5 µM); MIC [15]: 8 µg/mL (≈ 25 µM)
12 | CN(Cc1cc2ccccc2n1C)C(=O)c1ccc(N)nc1 | > 64 | > 100 | > 64 | 19.2 | > 64 | > 64 | –
13 | COC(=O)C[C@H]1Nc2ccc(C(=O)N(C)Cc3cc4ccccc4n3C)cc2CN(C)C1=O | > 64 | 9.9 | > 64 | 5.1 | > 64 | > 64 | –
14 | CN(Cc1cc2ccccc2n1C)C(=O)c1ccc(N)cc1 | 32 (≈ 109 µM) | 16.3 | > 64 | 2.6 | > 64 | > 64 | –
15 | Oc1cc(Cl)ccc1Oc1ccc(Cl)cc1Cl [TRICLOSAN] | – | – | – | – | – | – | MIC [16]: ≤ 0.06 µg/mL; MIC [17]: ≤ 0.06 µg/mL; IC50 [18]: > 30 µM
